Results reported in patent publication US11718589B2, “Compositions and methods of modulating short-chain dehydrogenase” (CASE WESTERN RESERVE UNIVERSITY, priority 2017, dated 2023).

What was measured:
recombinant 15-PGDH = recombinant 15-PGDH (Homo sapiens (Human), UniProt P15428); test: Enzyme inhibition of recombinant 15-PGDH, in vitro assay; assay type: biochemical; details: recombinant human 15-PGDH; read-out: Enzyme inhibition (IC50)
[1] = test system: PGE2 in A549 cell culture; test: Induction of PGE2 in A549 cell culture; assay type: cell-based; details: A549 cells; for induction of PGE2 in A549 cell culture at 0.1 μM (fold): 0.1 μM compound; for induction of PGE2 in A549 cell culture at 2.5 μM (fold): 2.5 μM compound
Method: This Example provides data on two groups (Table 1 and Table 2) of structural analogues of identified 15-PGDH inhibitors. Data provided is the IC50 of each compound for inhibiting enzymatic activity of recombinant 15-PGDH in an in vitro assay. Recombinant 15-PGDH is human unless otherwise specified. Additionally, the example provides data for selected compounds on induction of PGE2 in A549 cell culture administered 2.5 μM or 0.1 μM of the selected compound.

Chain of recombinant 15-PGDH (P15428 whole entry): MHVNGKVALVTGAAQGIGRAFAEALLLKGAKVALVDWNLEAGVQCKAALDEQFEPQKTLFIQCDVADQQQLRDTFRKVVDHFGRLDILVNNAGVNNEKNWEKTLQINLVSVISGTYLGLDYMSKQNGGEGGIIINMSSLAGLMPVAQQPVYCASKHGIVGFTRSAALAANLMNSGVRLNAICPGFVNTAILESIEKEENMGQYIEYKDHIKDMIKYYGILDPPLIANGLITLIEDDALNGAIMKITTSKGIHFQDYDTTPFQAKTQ

Row | SMILES | IC50 (recombinant 15-PGDH) | induction of PGE2 in A549 cell culture at 0.1 μM (fold) [1] | induction of PGE2 in A549 cell culture at 2.5 μM (fold) [1]
1 | COc1ccc(-c2cc(C(F)(F)F)n3nc(C(=O)N4CCCCC4)cc3n2)cc1 [1a] | 24 nM | 1.29 fold | 1.89 fold
2 | O=C(c1ccc2nc(-c3ccccc3)c(-c3ccccc3)nc2c1)N1CCCCC1 [1b] | – | 1.11 fold | 1.87 fold
3 | CCCC[S+]([O-])c1cc2nc(-c3ccc(OC)cc3)cc(C(F)(F)F)n2n1 (stereo not drawn) [3a] | – | 1.45 fold | 2.13 fold
4 | CCCC[S+]([O-])c1cc2nc(-c3ccc(OC)cc3)cc(-c3ccccc3)n2n1 (stereo not drawn) [5a] | – | 1.08 fold | 1.69 fold
5 | O=C(c1ccc2nc(-c3ccccc3)c(-c3cccnc3)nc2c1)N1CCCCC1 [33b] | 20 nM | – | –
6 | COc1ccc(-c2cc(-c3ccccc3)n3nc(C(=O)N4CCCCC4)cc3n2)cc1 [34a] | > 500 nM | – | –
7 | O=C(c1ccc2nc(-c3ccccc3)c(-c3ccncc3)nc2c1)N1CCCCC1 [34b] | 20 nM | – | –
8 | COc1ccc(-c2cc(C)n3nc(C(=O)N4CCCCC4)cc3n2)cc1 [35a] | 100 nM | – | –
9 | O=C(c1ccc2nc(-c3ccccc3)c(-c3ccc(F)nc3)nc2c1)N1CCCCC1 [35b] | 20 to 100 nM | – | –
10 | O=C(c1cc2nc(-c3ccc(F)cc3)cc(C(F)(F)F)n2n1)N1CCCCC1 [36a] | 30.7 nM | – | –
11 | O=C(c1ccc2nc(-c3ccccc3)c(-c3cncnc3)nc2c1)N1CCCCC1 [36b] | 20 to 100 nM | – | –
12 | O=C(c1cc2nc(-c3cncnc3)cc(C(F)(F)F)n2n1)N1CCCCC1 [37a] | > 2500 nM | – | –
13 | Cn1cc(-c2nc3cc(C(=O)N4CCCCC4)ccc3nc2-c2ccccc2)cn1 [37b] | 20 to 100 nM | – | –
14 | Cn1cc(-c2cc(C(F)(F)F)n3nc(C(=O)N4CCCCC4)cc3n2)cn1 [38a] | > 2500 nM | – | –
15 | Cc1cc(-c2nc3cc(C(=O)N4CCCCC4)ccc3nc2-c2ccccc2)ccn1 [38b] | 20 nM | – | –
16 | O=C(c1cc2nc(N3CCCCC3)cc(C(F)(F)F)n2n1)N1CCCCC1 [39a] | 660 nM | – | –
17 | Cc1ccc(-c2cc(C(F)(F)F)n3nc(C(=O)N4CCCCC4)cc3n2)cc1 [40a] | 395 nM | – | –
18 | O=C(c1cc2ncc(-c3ccccc3)cn2n1)N1CCCCC1 [41a] | 768 nM | – | –
19 | O=C(c1ccc2ncc(-c3cccc(F)c3)nc2c1)N1CCCCC1 [41b] | 4 to 20 nM | – | –

Row | SMILES | IC50 (recombinant 15-PGDH) | induction of PGE2 in A549 cell culture at 0.1 μM (fold) [1] | induction of PGE2 in A549 cell culture at 2.5 μM (fold) [1]
20 | O=C(c1cc2nc(-c3cccs3)cc(C(F)(F)F)n2n1)N1CCCCC1 [42a] | > 2500 nM | – | –
21 | O=C(c1ccc2ncc(-c3ccc(F)cc3)nc2c1)N1CCCCC1 [42b] | 4 to 20 nM | – | –
22 | O=C(c1cc2nc(-c3ccccc3C(F)(F)F)cc(C(F)(F)F)n2n1)N1CCCCC1 [43a] | > 2500 nM | – | –
23 | COc1ccc(-c2cc(N3CCCCC3)n3nc(C(=O)N4CCCCC4)cc3n2)cc1 [44a] | 500 nM | – | –
24 | O=C(c1cc2nc(-c3nccs3)cc(C(F)(F)F)n2n1)N1CCCCC1 [45a] | 14 nM | – | –
25 | O=C(c1ccc2ncc(-c3ccc(F)cc3F)nc2c1)N1CCCCC1 [45b] | 4 nM | – | –
26 | O=C(c1cc2nc(-c3ccc(C(F)(F)F)cc3)cc(C(F)(F)F)n2n1)N1CCCCC1 [47a] | > 2500 nM | – | –
27 | O=C(c1ccc2ncc(-c3cc(F)cc(F)c3)nc2c1)N1CCCCC1 [47b] | 16 nM | – | –
28 | CCCC[S+]([O-])c1cc2nc(-c3nccs3)cc(C(F)(F)F)n2n1 (stereo not drawn) [48a] | 20 to 100 nM | – | –
29 | CCCC[S+]([O-])c1nc2nc(-c3ccc(OC)cc3)cc(C(F)(F)F)n2n1 (stereo not drawn) [49a] | > 2500 nM | – | –
30 | CCCC[S+]([O-])c1nc2nc(-c3nccs3)cc(C(F)(F)F)n2n1 (stereo not drawn) [50a] | > 2500 nM | – | –
31 | CCCC[S+]([O-])c1cc2nc(-c3ccc(OC)cc3)cc(-c3cccnc3)n2n1 (stereo not drawn) [51a] | 500 to 2500 nM | – | –
32 | CCCC[S+]([O-])c1cc2nc(-c3ccc(OC)cc3)cc(-c3cncnc3)n2n1 (stereo not drawn) [52a] | 2500 nM | – | –
33 | CCCC[S+]([O-])c1cc2nc(-c3ccc(OC)cc3)cc(-c3cnn(C)c3)n2n1 (stereo not drawn) [53a] | 500 to 2500 nM | – | –
34 | CCCC[S+]([O-])c1cc2nc(-c3ccc(OC)cc3)cc(-c3cccn3C)n2n1 (stereo not drawn) [54a] | 4 to 20 nM | – | –
35 | CCCC[S+]([O-])c1nc2nc(-c3ccc(OC)cc3)cc(-c3ccccc3)n2n1 (stereo not drawn) [55a] | > 2500 nM | – | –
36 | O=C(c1cc2nc(-c3ccc(Cl)cc3)cc(C(F)(F)F)n2n1)N1CCCCC1 [56a] | > 2500 nM | – | –
37 | COc1ccc(-c2cc(C(F)(F)F)n3nc(C(=O)N4CC(C)CC(C)C4)cc3n2)cc1 (stereo not drawn) [57a] | 100 nM | – | –
38 | COc1ccc(-c2cc(C(F)(F)F)n3nc(C(=O)N4CCCC(CF)C4)cc3n2)cc1 (stereo not drawn) [58a] | 20 to 100 nM | – | –

Now from value to compound, other results behind:

Row | IC50 (recombinant 15-PGDH) | SMILES | induction of PGE2 in A549 cell culture at 0.1 μM (fold) [1] | induction of PGE2 in A549 cell culture at 2.5 μM (fold) [1]
39 | 100 to 500 nM | COc1ccc(-c2cc(C(F)(F)F)n3nc(C(=O)N4CCC(F)(F)CC4)cc3n2)cc1 [59a] | – | –
40 | 500 to 2500 nM | COc1ccc(-c2cc(C(F)(F)F)n3nc(C(=O)N4CCC(C(F)(F)F)CC4)cc3n2)cc1 [60a] | – | –
41 | > 2500 nM | O=C(c1cc2nc(-c3ccccc3)cc(C(F)(F)F)n2n1)N1CCCCC1 [61a] | – | –
42 | 500 to 2500 nM | COc1ccc(-c2cc(C(F)(F)F)n3nc(C(=O)N4CCCC(=O)C4)cc3n2)cc1 [62a] | – | –
43 | 4 to 20 nM | COc1ccc(-c2cc(C(F)(F)F)n3nc(C(=O)N4CCCC(C)(C)C4)cc3n2)cc1 [63a] | – | –
44 | 4 to 20 nM | Nc1ccc(-c2cnc3ccc(C(=O)N4CCCCC4)cc3n2)cc1 [63b] | – | –
45 | 100 to 500 nM | COc1ccc(-c2cc(C(F)(F)F)n3nc(C(=O)N4CCCC(C(F)(F)F)C4)cc3n2)cc1 (stereo not drawn) [64a] | – | –
46 | 100 nM | COc1ccc(-c2cc(C(F)(F)F)n3nc(C(=O)N4CCCC(F)(F)C4)cc3n2)cc1 [65a] | – | –
47 | 20 to 100 nM | COc1ccc(-c2cc(C(F)(F)F)n3nc(C(=O)N4CCCC(C(F)F)C4)cc3n2)cc1 (stereo not drawn) [66a] | – | –
48 | 4 to 20 nM | COc1ccc(-c2cc(C3CC3)n3nc(C(=O)N4CCCCC4)cc3n2)cc1 [67a] | – | –
49 | > 2500 nM | O=C(c1cc2nc(-c3ccc(O)cc3)cc(C(F)(F)F)n2n1)N1CCCCC1 [68a] | – | –
50 | 500 to 2500 nM | CCOc1ccc(-c2cc(C(F)(F)F)n3nc(C(=O)N4CCCCC4)cc3n2)cc1 [69a] | – | –
51 | 100 to 500 nM | CCCC[S+]([O-])c1cc2nc(-c3ccc(OC)cc3)cc(-c3cnc(C)n3C)n2n1 (stereo not drawn) [70a] | – | –
52 | 20 to 100 nM | COc1ccc(-c2cc(-c3cccn3C)n3nc(C(=O)N4CCCCC4)cc3n2)cc1 [71a] | – | –
53 | 4 to 20 nM | CCCC[S+]([O-])c1cc2nc(-c3ccc(OC)cc3)cc(-c3ccnn3C)n2n1 (stereo not drawn) [72a] | – | –
54 | 500 nM | CCCC[S+]([O-])c1cc2nc(-c3ccc(OC)cc3)cc(-c3cn(C)nc3C)n2n1 (stereo not drawn) [73a] | – | –
55 | 20 to 100 nM | CCCC[S+]([O-])c1cc2nc(-c3ccc(OC)cc3)cc(-c3c(C)nn(C)c3C)n2n1 (stereo not drawn) [74a] | – | –
56 | 20 to 100 nM | CC1CCCN(C(=O)c2cc3nc(-c4ccc(Cl)cc4)cc(C(F)(F)F)n3n2)C1 (stereo not drawn) [75a] | – | –
57 | 4 nM | CNC(=O)c1ccc(-c2cnc3ccc(C(=O)N4CCCCC4)cc3n2)cc1 [80b] | – | –
58 | ~4 nM | CC(C)(O)Cn1ccc2cc(-c3cnc4ccc(C(=O)N5CCCCC5)cc4n3)ccc2c1=O [89b] | – | –
59 | ~4 nM | Cn1nccc1-c1nc(-c2ccccc2)nc2cc(C(=O)N3CCCCC3)ccc12 [90b] | – | –
60 | ~4 nM | CCOC(=O)c1[nH]c2ccc(-c3cnc4ccc(C(=O)N5CCCCC5)cc4n3)cc2c1C [91b] | – | –
61 | < 4 nM | O=C(c1ccc2ncc(-c3ccc4c(=O)[nH]cc(Cl)c4c3)nc2c1)N1CCCCC1 [92b] | – | –
62 | < 4 nM | Cc1c(C(N)=O)[nH]c2ccc(-c3cnc4ccc(C(=O)N5CCCCC5)cc4n3)cc12 [93b] | – | –
63 | < 4 nM | CNC(=O)c1[nH]c2ccc(-c3cnc4ccc(C(=O)N5CCCCC5)cc4n3)cc2c1C [94b] | – | –
64 | < 4 nM | Nc1nc2ccc(-c3cnc4ccc(C(=O)N5CCCCC5)cc4n3)cc2s1 [95b] | – | –
